Measurements as given in PubChem BioAssay (NCI).
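Dose response: 5 concentrations. Exposure: 48 h. Format: 96-well plates. Endpoint: linear interpolation; highest concentration if not reached. The concentration for 50% growth inhibition is given as GI50. TGI: concentration producing complete growth inhibition.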

Tests used:
Experiment in all cases: DTP human tumour cell line panel, 48 h
786-0 renal = tested on: 786-0 renal
EKVX NSCLC = tested on: EKVX NSCLC
HL-60(TB) leukemia = tested on: HL-60(TB) leukemia
KM12 colon = tested on: KM12 colon
MCF7 breast = tested on: MCF7 breast
PC-3 prostate = tested on: PC-3 prostate
RPMI-8226 leukemia = tested on: RPMI-8226 leukemia
TK-10 renal = tested on: TK-10 renal
UACC-257 melanoma = tested on: UACC-257 melanoma
HS 578T breast = tested on: HS 578T breast

Row | SMILES | GI50 (786-0 renal) | TGI (786-0 renal) | GI50 (EKVX NSCLC) | TGI (EKVX NSCLC) | GI50 (HL-60(TB) leukemia) | TGI (HL-60(TB) leukemia) | GI50 (KM12 colon) | TGI (KM12 colon) | GI50 (MCF7 breast) | TGI (MCF7 breast) | GI50 (PC-3 prostate) | TGI (PC-3 prostate) | GI50 (RPMI-8226 leukemia) | TGI (RPMI-8226 leukemia) | GI50 (TK-10 renal) | TGI (TK-10 renal) | GI50 (UACC-257 melanoma) | TGI (UACC-257 melanoma) | TGI (HS 578T breast) | GI50 (HS 578T breast)
1 | COc1cccc(/C=C/C(=O)c2cc3c(N)c(C(=O)Nc4cccc5ccccc45)sc3nc2C)c1 | 0.851 µM | 1.85 µM | 1.87 µM | > 50 µM | 1.06 µM | 2.61 µM | 1.4 µM | 4.77 µM | 0.339 µM | > 50 µM | 1.48 µM | 6.22 µM | 0.461 µM | 2.73 µM | 1.78 µM | > 50 µM | 1.48 µM | 10.6 µM | – | –
2 | CC1OC(OC2CCC3(C=O)C4CCC5(C)C(C6=CC(=O)OC6)CCC5(O)C4CCC3(O)C2)C(O)C(O)C1O (stereo not drawn) | – | 3.2e-05 µM | – | 3.38e-05 µM | – | 0.000107 µM | – | 0.000298 µM | – | – | – | 0.0025 µM | – | 0.000124 µM | – | 0.000193 µM | – | 0.000259 µM | > 100 µM | –
3 | O=C1C=CC2(C=C1)C[C@H](NC(=O)C(F)(F)F)C(=O)O2 | – | > 100 µM | – | 39.6 µM | – | 36.1 µM | – | > 100 µM | – | – | – | – | – | > 100 µM | – | > 100 µM | – | > 100 µM | – | –
4 | C[C@@H]1C[C@]2(C[C@@H](C)C3[C@@H](CC4(C)[C@@H]5CCC6C(C)(C)OC(=O)C=C[C@]67C[C@@]5(CC[C@]34C)OO7)O2)OC1=O (stereo partly drawn) | – | > 100 µM | – | – | – | > 100 µM | – | – | – | – | – | – | – | > 100 µM | – | > 100 µM | – | > 100 µM | – | –
5 | COc1ccc(C2CCc3cc4c(cc3/C2=N/OC(C)=O)OCO4)cc1OC (stereo not drawn) | – | > 100 µM | – | > 100 µM | – | – | – | 54.8 µM | – | – | – | – | – | 47.8 µM | – | > 100 µM | – | 51.6 µM | – | –
6 | Cc1cc(Cl)cc2c1NC(=O)C2=O (tested in a mixture with another compound) | – | > 100 µM | – | > 100 µM | – | – | – | > 100 µM | – | – | – | – | – | – | – | > 100 µM | – | 51.1 µM | – | –
7 | COC(=O)CC(C(C(C)=O)C(=O)OCc1ccccc1)N1C(=O)OCC1c1ccccc1 (stereo not drawn) | – | > 100 µM | – | > 100 µM | – | > 100 µM | – | – | – | – | – | – | – | > 100 µM | – | > 100 µM | – | > 100 µM | – | –
8 | CC(=O)OC1CC2C(=O)C(=O)C1(C)C2(C)C (stereo not drawn) | – | > 100 µM | – | > 100 µM | – | – | – | – | – | > 100 µM | – | > 100 µM | – | > 100 µM | – | > 100 µM | – | > 100 µM | – | –
9 | CC1CC2(C)CC(=O)C1C1C(=O)N(CCN3CCCCC3)C(=O)C12 (stereo not drawn) | > 100 µM | > 100 µM | > 100 µM | > 100 µM | > 100 µM | > 100 µM | > 100 µM | > 100 µM | – | – | > 100 µM | > 100 µM | – | – | > 100 µM | > 100 µM | > 100 µM | > 100 µM | > 100 µM | > 100 µM
10 | C=[CH][Sn]([CH]=C)([O]c1cccc2cccnc12)[O]c1cccc2cccnc12 | 3.31 µM | 9.29 µM | 5.58 µM | 17.2 µM | 0.619 µM | 2.91 µM | 3.2 µM | 7.34 µM | 3.11 µM | 12.6 µM | 3.85 µM | 29.7 µM | 0.877 µM | 4.71 µM | 9.46 µM | 29.4 µM | 2.36 µM | 7.66 µM | – | –
11 | CCSC(SCC)=C1C(=O)N(c2ccccc2)N=C1C | – | 27 µM | – | 28.5 µM | – | 7.35 µM | – | 35.3 µM | – | – | – | – | – | 27 µM | – | 22.2 µM | – | 18.5 µM | – | –
12 | C[N+](C)(C)CC1CCCC(C[N+](C)(C)C)C1O (stereo not drawn) | – | > 100 µM | – | > 100 µM | – | > 100 µM | – | > 100 µM | – | – | – | – | – | > 100 µM | – | > 100 µM | – | > 100 µM | – | –
13 | CCCCCCCCCCCCOP(N)(=O)OCCCCCCCCCCCC | – | > 100 µM | – | > 100 µM | – | > 100 µM | – | – | – | – | – | – | – | > 100 µM | – | > 100 µM | – | > 100 µM | – | –
14 | COc1cccc(NC(=O)C(=O)C(C(C)=O)c2nc3ccc(Cl)cc3[nH]c2=O)c1 (stereo not drawn) | – | > 100 µM | – | > 100 µM | – | > 100 µM | – | > 100 µM | – | – | – | – | – | > 100 µM | – | > 100 µM | – | > 100 µM | – | –
15 | CNC(=O)CN(CC(N)=O)C(N)=O | – | > 100 µM | – | > 100 µM | – | > 100 µM | – | > 100 µM | – | – | – | – | – | > 100 µM | – | > 100 µM | – | – | – | –
16 | Cc1c(C(=O)CSc2nc3ccccc3[nH]2)c(=O)n(-c2ccccc2)n1C | – | > 100 µM | – | – | – | > 100 µM | – | > 100 µM | – | – | – | – | – | > 100 µM | – | > 100 µM | – | > 100 µM | – | –
17 | CC(C)C(=O)Oc1cc2c(=O)oc3c(OC(=O)C(C)C)c(OC(=O)C(C)C)cc4c(=O)oc(c1OC(=O)C(C)C)c2c34 | – | > 100 µM | – | > 100 µM | – | – | – | > 100 µM | – | > 100 µM | – | > 100 µM | – | > 100 µM | – | > 100 µM | – | > 100 µM | > 100 µM | –
18 | CCN(CC)CCN(C(=O)C(C)(C)C)c1ccccc1N | – | > 100 µM | – | > 100 µM | – | > 100 µM | – | > 100 µM | – | > 100 µM | – | > 100 µM | – | > 100 µM | – | > 100 µM | – | > 100 µM | – | –
19 | CCCCCCCCCCCCCc1nn[nH]n1 | – | 31.5 µM | – | 52 µM | – | 39.9 µM | – | 32.9 µM | – | – | – | – | – | 64.2 µM | – | 43.7 µM | – | 35.9 µM | – | –
20 | CCOc1ccc(C(CN2CCOCC2)C(C)=O)cc1OC (stereo not drawn) | – | 15.7 µM | – | 50.3 µM | – | 17 µM | – | 29 µM | – | – | – | – | – | 83.5 µM | – | 31 µM | – | 45.8 µM | – | –
21 | COc1nc(NC2OC(COC(C)=O)C(OC(C)=O)C(OC(C)=O)C2OC(C)=O)c(-c2csc(N)n2)c(=O)n1C (stereo not drawn) | – | 54.6 µM | – | – | – | – | – | > 100 µM | – | – | – | – | – | > 100 µM | – | > 100 µM | – | > 100 µM | – | –
22 | COC(=O)/C(=N\NC(N)=S)C(C#N)c1ccccc1 (stereo not drawn) | – | > 100 µM | – | > 100 µM | – | > 100 µM | – | > 100 µM | – | – | – | – | – | > 100 µM | – | > 100 µM | – | > 100 µM | – | –
23 | Cc1ccc(NC(=O)CC(=O)N2N=C(N(CCC#N)c3cccc(C)c3)CC2c2ccccc2)cc1 (stereo not drawn) | – | > 100 µM | – | > 100 µM | – | > 100 µM | – | > 100 µM | – | – | – | – | – | > 100 µM | – | – | – | > 100 µM | – | –
24 | CCC1CNC(=O)CC1CC(=O)OC (stereo not drawn) | – | > 100 µM | – | > 100 µM | – | > 100 µM | – | > 100 µM | – | – | – | – | – | – | – | > 100 µM | – | – | – | –
25 | COc1ccccc1NC(=O)C(CC(C(=O)Nc1ccccc1OC)/C(C)=N/Nc1ccc([N+](=O)[O-])cc1[N+](=O)[O-])/C(C)=N/Nc1ccc([N+](=O)[O-])cc1[N+](=O)[O-] (stereo not drawn) | – | > 100 µM | – | > 100 µM | – | > 100 µM | – | > 100 µM | – | – | – | – | – | > 100 µM | – | 60 µM | – | > 100 µM | – | –
